Source: PMC10068313, “Mechanical forces impair antigen discrimination by reducing differences in T‐cell receptor/peptide–MHC off‐rates” (The EMBO Journal, 2022)

Tests used:
1G4 TCR [1] = test system: 1G4 TCR; parameters: method as in Robert et al, 2012; conditions: ref Robert et al, 2012; cited from earlier work
1G4 TCR [2] = experiment: Laminar flow chamber (LFC) assay, 1G4 TCR-coated beads over pMHC surface; conditions: for force sensitivity parameter xβ, 1G4 TCR: Bell's model fit of off-rates under force (survival at 1 s, corrected for non-specific binding), forces < 120 pN, 6–10 independent experiments combined; for force sensitivity parameter xβ, 1G4 TCR / zero-force off-rate (k0off) from Bell's model, 1G4 TCR: cell-free; for force sensitivity parameter xβ, 1G4 TCR / bond type at forces < 20 pN, 1G4 TCR / bond type under force, 1G4 TCR / zero-force off-rate (k0off) from Bell's model, 1G4 TCR / off-rate: 37°C; for bond type at forces < 20 pN, 1G4 TCR / bond type under force, 1G4 TCR: LFC; for bond type under force, 1G4 TCR: purified TCR; for zero-force off-rate (k0off) from Bell's model, 1G4 TCR: extrapolated from off-rates under force (survival at 1 s, corrected data); for off-rate: survival at 1 s, corrected data; for koff_0: source data of Fig 2E, 1G4 TCR, zero-force off-rate from Bell's model fit
Method: In this assay, beads coated with TCR flow over a low density of pMHC while a camera records bead motion (Fig 2A, Movie EV1). […] The duration of TCR/pMHC binding is determined by an automated image analysis algorithm that detects the duration of bead arrests.
We first confirmed that bead arrests were mediated by single bonds. […] These constraints limit the LFC to a range of flow velocities that translate into pulling forces between ~ 5–120 pN with the upper bound determined, in part, by the binding rate and strength of the specific TCR/pMHC interaction. Finally, survival distributions were generated using the duration of individual beads for each TCR/pMHC pair and corrected by the corresponding distribution of arrests without pMHC for each paired velocity. We focus on the first 5 s of the distribution because on longer timescales measurement of bead arrest is often interrupted by a collision from a second bead.
Glass slides were rinsed twice in absolute ethanol then washed in a “piranha” solution composed of 70% H2SO4, 15% water and 15% H2O2 for 10 min, then rinsed with 5 litres of deionized water. […] Glass slides were then mounted in a home‐made multi‐channel thermo‐regulated flow chamber device, forming nine independent chambers of 12 mm length and 2 × 0.250 mm^2 section. Each chamber was then filled with a biotinylated pMHC solution in PBS with 0.1% BSA at chosen concentration, using cascade dilution to deposit in our 9‐chambers apparatus 8 different amounts of pMHC plus one chamber as a negative control. Microspheres (Dynal M‐450 tosly‐activated, Thermo Fisher, France) were rinsed three time in a 0.1 M borate solution, then incubated in a 200 μg/ml solution of anti‐6xHis‐tag antibody (Bio‐Rad, MCA1396, clone AD1.1.10, RRID: AB322084) overnight under constant agitation. Microspheres were rinsed three time in PBS/0.1% BSA then incubated prior to each experiment in a 200 μg/ml solution of 6xHis‐tag TCR.
The device forming nine independent chambers on a common glass slide was thermo‐regulated at 37°C by water circulation, set on an inverted microscope with a 10× lens (Leica, Germany) with a digital CCD camera (UEye, IDS Germany), and chamber entry was connected to the piping. For each independent chamber, the automaton performed cycles, each cycle being an experiment for a given shear flow. The automaton repeated cycles of microspheres agitation, microspheres injection in the chamber, launch of movie recording at 50 frames per seconds with M‐JPEG on‐the‐fly compression, and flow at a given shear for 90 s. Shear value was automatically modified for each new cycle until all chosen shear conditions had been recorded. The chamber was manually disconnected and next chamber was connected, then automaton was re‐launched. Raw data are in the form of movies of microspheres motion. A software suite written in Java as ImageJ plug‐ins retrieves microspheres trajectories and then detects microspheres arrest events using a velocity threshold and record arrests number, arrests duration and distance travelled by sedimented microspheres.
Binding linear densities are calculated as the ratio of the number of arrests on the distance travelled by microspheres sedimented on the chamber surface. Specific binding densities are calculated by subtracting control linear binding density from assay linear binding density for a given shear condition. Duration of arrests was pooled for experiments sharing identical TCR and pMHC molecules, identical amount of pMHC on the surface and identical shear rate, to build survival curves of the arrests. […] Each TCR‐pMHC bond was measured in 8 to 12 independent experiments.

1G4 TCR [3] = conditions: solution affinity of NYE pMHC for 1G4 TCR used in Fig 4F; ref Pettmann et al, 2021; cited from earlier work
[4] = biological target: NYE 3A peptide presented on HLA-A*02:01; experiment: SPR
[5] = biological target: NYE 3Y peptide presented on HLA-A*02:01; experiment: SPR
[6] = biological target: NYE 6T peptide presented on HLA-A*02:01; experiment: SPR
[7] = biological target: NYE 4E5E8E peptide presented on HLA-A*02:01; experiment: SPR
[8] = biological target: NYE 6V peptide presented on HLA-A*02:01; experiment: SPR
[9] = biological target: NYE 4D peptide presented on HLA-A*02:01; experiment: SPR
[10] = biological target: Tax 7T peptide presented on HLA-A*02:01 (human | HTLV-1); experiment: SPR
[11] = biological target: Tax 7Q peptide presented on HLA-A*02:01 (human | HTLV-1); experiment: SPR
[12] = biological target: Tax 7R peptide presented on HLA-A*02:01 (human | HTLV-1); experiment: SPR
[13] = biological target: Tax 5F peptide (printed ) presented on HLA-A*02:01 (human | HTLV-1); experiment: SPR
[14] = biological target: Tax 5H peptide presented on HLA-A*02:01 (human | HTLV-1); experiment: SPR

In the case of SLAMWITQV [NYE 3A], the “bond type under force at 25°C, 1G4 TCR” value (1G4 TCR [1]) is listed as “canonical slip”, the “force sensitivity parameter xβ, 1G4 TCR” value (1G4 TCR [2]) is listed as -0.016 nm and the “bond type at forces < 20 pN, 1G4 TCR” value (1G4 TCR [2]) is listed as “slip bonds”. The “bond type under force, 1G4 TCR” value (1G4 TCR [2]) was “did not display canonical slip or catch bonds” and the “zero-force off-rate (k0off) from Bell's model, 1G4 TCR” value (1G4 TCR [2]) was 0.42 s⁻¹.

For SLLDWITQV [NYE 4D], the Kd (1G4 TCR [3]) is given as 140 µM, the “force sensitivity parameter xβ, 1G4 TCR” value (1G4 TCR [2]) is given as 0.03228 nm and the off-rate (1G4 TCR [2]; Force 5.76043 pN) is given as 0.2871 s⁻¹. The off-rate (1G4 TCR [2]; Force 10.9915 pN) was 0.9234 s⁻¹, the off-rate (1G4 TCR [2]; Force 35.7266 pN) was 1.088 s⁻¹ and the off-rate (1G4 TCR [2]; Force 49.679 pN) was 0.8939 s⁻¹. For the same substance, the off-rate (1G4 TCR [2]; Force 66.9081 pN) was 1.152 s⁻¹, the off-rate (1G4 TCR [2]; Force 92.3818 pN) was 1.23 s⁻¹ and the koff_0 (1G4 TCR [2]) was -0.1852.

In the case of SLLEEITEV [NYE 4E5E8E], the “force sensitivity parameter xβ, 1G4 TCR” value (1G4 TCR [2]) is reported as 0.06548 nm, the off-rate (1G4 TCR [2]; Force 9.5329 pN) is reported as 0.132 s⁻¹ and the off-rate (1G4 TCR [2]; Force 20.855 pN) is reported as 0.181 s⁻¹. It also gave an off-rate (1G4 TCR [2]; Force 57.9236 pN) of 0.5269 s⁻¹, an off-rate (1G4 TCR [2]; Force 74.4128 pN) of 0.6611 s⁻¹ and an off-rate (1G4 TCR [2]; Force 98.8295 pN) of 0.7569 s⁻¹. The koff_0 (1G4 TCR [2]) was -0.7399.

In the case of SLLMWTTQV [NYE 6T], the “bond type under force at 25°C, 1G4 TCR” value (1G4 TCR [1]) is listed as “catch bonds”, the Kd (1G4 TCR [3]) is listed as 162 µM and the “force sensitivity parameter xβ, 1G4 TCR” value (1G4 TCR [2]) is listed as 0.019 nm. For the same substance, the “bond type at forces < 20 pN, 1G4 TCR” value (1G4 TCR [2]) was “slip bonds”, the “bond type under force, 1G4 TCR” value (1G4 TCR [2]) was “did not display canonical slip or catch bonds” and the “zero-force off-rate (k0off) from Bell's model, 1G4 TCR” value (1G4 TCR [2]) was 0.87 s⁻¹.

In the case of SLLMWVTQV [NYE 6V], the “force sensitivity parameter xβ, 1G4 TCR” value (1G4 TCR [2]) is reported as 0.08939 nm, the off-rate (1G4 TCR [2]; Force 4.03 pN) is reported as 0.1923 s⁻¹ and the off-rate (1G4 TCR [2]; Force 10.0633 pN) is reported as 0.2976 s⁻¹. It also gave an off-rate (1G4 TCR [2]; Force 34.1225 pN) of 0.9589 s⁻¹, an off-rate (1G4 TCR [2]; Force 53.3785 pN) of 1.216 s⁻¹ and an off-rate (1G4 TCR [2]; Force 71.3475 pN) of 1.468 s⁻¹.

In the case of SLYMWITQV [NYE 3Y], the “force sensitivity parameter xβ, 1G4 TCR” value (1G4 TCR [2]) is reported as 0.06402 nm, the off-rate (1G4 TCR [2]; Force 4.46758 pN) is reported as 0.1572 s⁻¹ and the off-rate (1G4 TCR [2]; Force 11.986 pN) is reported as 0.462 s⁻¹. For the same substance, the off-rate (1G4 TCR [2]; Force 24.9875 pN) was 0.9162 s⁻¹, the off-rate (1G4 TCR [2]; Force 50.6303 pN) was 1.043 s⁻¹ and the off-rate (1G4 TCR [2]; Force 74.2014 pN) was 1.215 s⁻¹.

“Soluble 1G4 TCR (from UniProt P01848 1-93; A0A5B9 1-129)” gave a Kd [4] of 7 µM, a Kd [5] of 55 µM and a Kd [6] of 161 µM. It also gave a Kd [7] of 17 µM, a Kd [8] of 17 µM and a Kd [9] of 139 µM.

“Soluble A6 TCR (from UniProt P01848 1-93; A0A5B9 1-129)” showed a Kd [10] of 3 µM, a Kd [11] of 37 µM and a Kd [12] of 21 µM. The Kd [13] was 3 µM and the Kd [14] was 56 µM.
